According to US10064891B2, “Assembly of micelle aggregates of surfactant micelles and silver nanoparticles and use as antibacterial agent” (Otago Innovation Limited, priority 2013, dated 2018):

Experiments:
[1] = Determination of cmc / cmceff by electrical conductivity; format: physicochemical; conditions: H2O, 25° C.; for cmc of pure surfactant (cmceff at 0 mM AgNO3): no AgNO3
Description: Electrical conductivity measurements (mS cm^−1) were performed on five SDS solutions over a range of concentrations, with each solution containing a different amount of added AgNO3. […] Standard deviations for each data point are <0.014 mS cm^−1 in all cases. Closed symbols represent the data points used for the linear regression analysis below the cmc, and the open symbols for the analysis above the cmc. For each sample, regardless of the electrolyte content, as the SDS concentration was varied, an inflection point in the electrical conductivity was observed, indicating the cmc. A linear regression analysis of the conductivity data of each of the five samples was performed above and below the inflection point. In all cases, no significant deviations from linearity were observed over the concentration ranges. A dashed line has been added to one data set to indicate the point of intersection of the two corresponding linear equations, thus indicating the cmc. The cmc of pure SDS in H2O in the absence of AgNO3 was determined to be 8.1 mM. The curve represents a critical ‘cmc boundary’ for the SDS/AgNO3 system, i.e. the cmceff of SDS at a given AgNO3 concentration between 0-10 mM.
Following the procedure detailed in Example 1, electrical conductivity measurements were performed on sodium dodecylbenzenesulfonate (SDBS), sodium lauryl ether sulfate (SLES) and ammonium lauryl sulfate (ALS) solutions containing different amounts of added AgNO3 in order to determine the cmceff of each surfactant. […] Linear regression analysis was performed as described in Example 1. The cmc of pure SDBS, SLES and ALS at 25° C. was determined to be 1.4, 3.1 and 6.7 mM, respectively.

[2] = absence of any salts; cited from earlier work

| Compound | cmc of pure surfactant (cmceff at 0 mM AgNO3) [1] [mM] | cmc of pure SDS in water (known) [2] [mM] | Cmceff ([1]; [AgNO3] 0.6 mM) [mM] | Cmceff ([1]; [AgNO3] 2.9 mM) [mM] |
| --- | --- | --- | --- | --- |
| CCCCCCCCCCCCOS(=O)(=O)[O-].[Na+] [SDS, sodium dodecyl sulfate] | 8.1 | 8.0 to 8.3 |  |  |
| sodium lauryl ether sulfate [SLES] | 3.1 |  | 2.1 | 1.9 |
| CCCCCCCCCCCCOS(=O)(=O)O.N [ALS, ammonium lauryl sulfate] | 6.7 |  | 4.6 |  |
